In article PMC8428568, “Discovery of re-purposed drugs that slow SARS-CoV-2 replication in human cells” (PLoS Pathogens, 2021):
Where a name gives a salt, the structure may show the parent alone. Read-outs that look alike come from different tables or passages of the source.

Experiments:
[1] = tested on: SARS-CoV-2-ΔOrf7a-NLuc virus; test: microbe, parasite or virus in culture; format: cell-based; settings: for activity at 10 µM: Severe acute respiratory syndrome coronavirus 2, Vero, 72 h, read-out: Mean relative luminescence (n=4)
[2] = tested on: SARS-CoV-2-ΔOrf7a-NLuc virus; test: microbe, parasite or virus in culture; format: cell-based
recombinant NLuc = format: biochemical
HUH7 cells = settings: for toxic effects on cells: HUH7 cells screen
[3] = Vero screen, […], relative luminescence
[4] = […], 1 = untreated, 0 = total inhibition
[5] = HUH7 screen, […], relative luminescence
[6] = Vero cells, 10 μM, 1 = DMSO-treated infected cells

## CNCC[C@H](Oc1cccc2ccccc12)c1cccs1 [Duloxetine HCl]
[1]
  % activity in Vero 100PFU screen: 12%
  activity at 10 µM: 9.8%
[2]
  Mean relative luminescence (n=4): 0.02845
Recombinant NLuc
  Reads Counts per second (read 1): 297459 Counts per second
  Reads Counts per second (read 3): 293652 Counts per second
  Reads Counts per second (read 4): 301826 Counts per second
  Relative Recombinant NLUC: 0.7894
Vero cells; African green monkey
  PrestoBlue relative viability: 0.9914
HUH7 cells; human
  PrestoBlue relative viability: 0.5048

## CCN(CCO)CCCC(C)Nc1ccnc2cc(Cl)ccc12 (centres unmarked) [hydroxychloroquine]
[2]
  effect on virus replication: did show some effects
HUH7 cells
  toxic effects on cells: toxic effects on cells

## Cl.Cl.Fc1ccc(C(c2ccc(F)cc2)N2CCN(C/C=C/c3ccccc3)CC2)cc1 [Flunarizine 2HCl]
[1]; [3]
  Mean relative luminescence (n=4): 0.1133
[1]; [4]
  Mean relative luminescence (n=4): 0.1133
[2]; [5]
  Mean relative luminescence (n=4): 0.1091
Vero cells; [6]
  PrestoBlue relative viability: 2.629
Vero cells; Vero screen
  PrestoBlue relative viability: 2.629
HUH7 cells; HUH7 screen
  PrestoBlue relative viability: 0.9689

## CC[C@H]1OC(=O)[C@H](C)[C@@H](O[C@H]2C[C@@](C)(OC)[C@@H](O)[C@H](C)O2)[C@H](C)[C@@H](O[C@@H]2O[C@H](C)C[C@H](N(C)C)[C@H]2O)[C@](C)(O)C[C@@H](C)CN(C)[C@H](C)[C@@H](O)[C@]1(C)O [azithromycin]
[2]
  effect on virus replication: did show some effects
HUH7 cells
  toxic effects on cells: toxic effects on cells

## COC(=O)C[C@](O)(CCCC(C)(C)O)C(=O)O[C@@H]1C(OC)=C[C@]23CCCN2CCc2cc4c(cc2[C@H]13)OCO4 [Homoharringtonine]
[1]; [4]
  activity at 10 µM: 1.44%
[1]; [3]
  Mean relative luminescence (n=4): 0.01441
[2]; [5]
  Mean relative luminescence (n=4): 0.0133
Vero cells; [6]
  PrestoBlue relative viability: 0.5068
Vero cells; Vero screen
  PrestoBlue relative viability: 0.5068
HUH7 cells; HUH7 screen
  PrestoBlue relative viability: 0.6794

## CCOC(=O)C1=C(COCCN)NC(C)=C(C(=O)OC)C1c1ccccc1Cl (centres unmarked) [Amlodipine Besylate]
[1]; [4]
  activity at 10 µM: 12.4%
[1]; [3]
  Mean relative luminescence (n=4): 0.124
[2]; [5]
  Mean relative luminescence (n=4): 0.03381
Vero cells; [6]
  PrestoBlue relative viability: 1.385
Vero cells; Vero screen
  PrestoBlue relative viability: 1.385
HUH7 cells; HUH7 screen
  PrestoBlue relative viability: 0.6859

## Cc1ccc(NC(=O)c2ccc(CN3CCN(C)CC3)cc2)cc1Nc1nc(-c2cccnc2)cs1 [Masitinib (AB1010), Masitinib]
[1]; [4]
  activity at 10 µM: 13.4%
[1]; [3]
  Mean relative luminescence (n=4): 0.1339
[2]; [5]
  Mean relative luminescence (n=4): 0.03917
Vero cells; [6]
  PrestoBlue relative viability: 1.308
Vero cells; Vero screen
  PrestoBlue relative viability: 1.308
HUH7 cells; HUH7 screen
  PrestoBlue relative viability: 0.7156

## C=C1CC[C@H](O)C/C1=C/C=C1\CCC[C@]2(C)[C@@H]([C@H](C)/C=C/[C@H](C)C(C)C)CC[C@@H]12 [vitamin D2]
[1]
  effect on virus replication: also reduced virus replication but did not meet all criteria
[2]
  effect on virus replication: also reduced virus replication but did not meet all criteria

## C[C@@H]1C[C@H]2[C@@H]3CCC4=CC(=O)C=C[C@]4(C)[C@@]3(F)[C@@H](O)C[C@]2(C)[C@@]1(O)C(=O)CO [dexamethasone]
[1]
  effect on virus replication: did not demonstrate any effect on viral replication
[2]
  effect on virus replication: did not demonstrate any effect on viral replication

## O=C1CCc2ccc(OCCCCN3CCN(c4cccc(Cl)c4Cl)CC3)cc2N1 [Aripiprazole]
[1]; [4]
  activity at 10 µM: 10.1%
[1]; [3]
  Mean relative luminescence (n=4): 0.1007
[2]; [5]
  Mean relative luminescence (n=4): 0.008694
Vero cells; [6]
  PrestoBlue relative viability: 0.6278
Vero cells; Vero screen
  PrestoBlue relative viability: 0.6278
HUH7 cells; HUH7 screen
  PrestoBlue relative viability: 0.7416
